Patent US8268885B2, “Entry inhibitors of the HIV virus” (priority 2003, dated 2012)

Experiments:
Assay type in all cases: cell-based
HIV = test: anti-viral replication assay using MT4-LTR-EGFP cells; conditions: Human immunodeficiency virus 1, read-out: antiviral EC50
Experimental: (§1) The compounds were tested in the anti-viral replication assay using the MT4-LTR-EGFP cells and in the ERA assay. Toxicity was measured using MT4-CMV-EGFP cells.

[1] = toxicity assay using MT4-CMV-EGFP cells (reduced expression of GFP reporter); conditions: human
Experimental: A toxicity assay wherein a reduced expression of the GFP reporter protein (Mt4-CMV-EGFP cells) serves as a marker for cellular toxicity of a test compound can be used to measure the toxicity of the present compounds.
as §1

[2] = test system: cell-cell fusion between cell line persistently expressing HIV and a cell line expressing CD4 and CXCR4; test: entry reporter assay (ERA): inhibition of cell-cell fusion, FACS read-out; conditions: for EC50: Human immunodeficiency virus 1, read-out: ERA assay EC50; for ERA assay % inh: cell-cell fusion, concentration not given
Experimental: as §1

For `O=C(O)c1ccc(S(=O)(=O)Nc2ccc(Oc3cccc4cnccc34)cc2)cc1` [Compound 6], the EC50 (HIV) was 18.6 µM, the CC50 [1] was > 100 µM and the EC50 [2] was 182 µM. The “ERA assay % inh” value [2] was 52%.
With `O=C(CNCCN1CCCC1)Nc1ccc(Oc2cccc3c2N(C(=O)CNCCN2CCCC2)CCC3)cc1` [Compound 7] the EC50 (HIV) was 57.7 µM, the CC50 [1] was > 100 µM and the EC50 [2] was > 200 µM. The “ERA assay % inh” value [2] was 29%.
In the case of `CCCCc1ccc(C(=O)NCc2cccc(Oc3ccc(NC(=O)c4ccc(CCCC)cc4)cc3)c2)cc1` [Compound 44], the EC50 (HIV) is reported as 2 µM, the CC50 [1] is reported as > 32 µM and the EC50 [2] is reported as > 200 µM. For the same compound, the “ERA assay % inh” value [2] was 22%.
Work on `COc1cccc(C(=O)Nc2ccc(Oc3ccc(NC(=O)COc4ccccc4)cc3)cc2)c1` [Compound 30] yielded an EC50 (HIV) of 0.37 µM and a CC50 [1] of 3.85 µM.
In the case of `COc1ccc(S(=O)(=O)Nc2ccc(Oc3ccc(NC(=O)c4ccco4)cc3)cc2)cc1` [Compound 40], the EC50 (HIV) is reported as 0.15 µM, the CC50 [1] is reported as 22.4 µM and the EC50 [2] is reported as 40.9 µM. The “ERA assay % inh” value [2] was 79%.
With `COc1ccc(S(=O)(=O)Nc2ccc(Oc3ccc(NC(=O)c4cccc(OC)c4)cc3)cc2)cc1` [Compound 36] the EC50 (HIV) was 1.05 µM, the CC50 [1] was 5.87 µM and the EC50 [2] was > 200 µM. For the same compound, the “ERA assay % inh” value [2] was 9%.
With `O=C(COCc1ccccc1)NCc1cccc(Oc2ccc(NC(=O)COCc3ccccc3)cc2)c1` [Compound 43] the EC50 (HIV) was 11.8 µM, the CC50 [1] was > 32 µM and the EC50 [2] was 83.6 µM. The “ERA assay % inh” value [2] was 54%.
For `O=C(Nc1ccc(Oc2cccc3cnccc23)cc1)c1ccc([N+](=O)[O-])cc1` [Compound 4], the EC50 (HIV) was 5.34 µM, the CC50 [1] was > 100 µM and the EC50 [2] was > 200 µM. The “ERA assay % inh” value [2] was 30%.
With `O=C(COc1ccccc1)Nc1ccc(Oc2ccc([N+](=O)[O-])cc2)cc1` [Compound 24] the EC50 (HIV) was 19.5 µM, the CC50 [1] was > 100 µM and the EC50 [2] was 78.4 µM. For the same compound, the “ERA assay % inh” value [2] was 68%.
For `O=C(Nc1ccc(Oc2ccc(NC(=O)c3cccc([N+](=O)[O-])c3)cc2)cc1)c1cccc([N+](=O)[O-])c1` [Compound 12], the EC50 (HIV) was 41.3 µM, the CC50 [1] was 54.2 µM and the EC50 [2] was > 200 µM. For the same compound, the “ERA assay % inh” value [2] was 17%.
For `CC(=O)OCC(=O)Nc1ccc(Oc2ccc(NC(=O)COc3ccccc3)cc2)cc1` [Compound 35], the EC50 (HIV) was 3.28 µM, the CC50 [1] was 23.6 µM and the EC50 [2] was 150 µM. The “ERA assay % inh” value [2] was 55%.
For `CCCCc1ccc(C(=O)Nc2ccc(Oc3cccc4c3N(C(=O)c3ccc(CCCC)cc3)CCC4)cc2)cc1` [Compound 21], the EC50 (HIV) was > 34 µM, the CC50 [1] was > 100 µM and the EC50 [2] was > 200 µM. For the same compound, the “ERA assay % inh” value [2] was 9%.
For `COc1ccc(S(=O)(=O)Nc2ccc(Oc3ccc(NC(=O)Cc4ccccc4)cc3)cc2)cc1` [Compound 39], the EC50 (HIV) was 1.56 µM, the CC50 [1] was > 100 µM and the EC50 [2] was > 100 µM. The “ERA assay % inh” value [2] was 45%.
With `O=C(COc1ccccc1)Nc1ccc(Oc2cccc3c2N(C(=O)COc2ccccc2)CCC3)cc1` [Compound 20] the EC50 (HIV) was 3.25 µM, the CC50 [1] was > 32 µM and the EC50 [2] was > 100 µM. For the same compound, the “ERA assay % inh” value [2] was 39%.
For `O=C(COc1ccccc1)Nc1ccc(Oc2ccc(NC(=O)c3ccco3)cc2)cc1` [Compound 34], the EC50 (HIV) was 1.24 µM, the CC50 [1] was 83.2 µM and the EC50 [2] was > 200 µM. The “ERA assay % inh” value [2] was 41%.
For `O=C(COc1ccccc1)Nc1ccc(Oc2ccc(NC(=O)c3ccc4c(c3)OCO4)cc2)cc1` [Compound 32], the EC50 (HIV) was 4.17 µM, the CC50 [1] was 19.9 µM and the EC50 [2] was > 200 µM. For the same compound, the “ERA assay % inh” value [2] was 29%.
For `COc1ccc(S(=O)(=O)Nc2ccc(Oc3ccc(NC(=O)c4cccc([N+](=O)[O-])c4)cc3)cc2)cc1` [Compound 37], the EC50 (HIV) was 3.92 µM and the CC50 [1] was > 32 µM.
With `O=C(Cc1ccccc1)Nc1ccc(Oc2ccc(NC(=O)Cc3ccccc3)cc2)cc1` [Compound 10] the EC50 (HIV) was > 32 µM, the CC50 [1] was > 32 µM and the EC50 [2] was > 100 µM. For the same compound, the “ERA assay % inh” value [2] was 48%.
In the case of `CN1CCN(CC(=O)Nc2ccc(Oc3ccc(NC(=O)CN4CCN(C)CC4)cc3)cc2)CC1` [Compound 16], the EC50 (HIV) is reported as 55 µM, the CC50 [1] is reported as > 100 µM and the EC50 [2] is reported as > 200 µM. The “ERA assay % inh” value [2] was 42%.
In the case of `N#Cc1ccc(C(=O)Nc2ccc(Oc3cccc4cnccc34)cc2)cc1` [Compound 5], the EC50 (HIV) is reported as 3.29 µM and the CC50 [1] is reported as > 100 µM.
`O=C(Nc1ccc(Oc2cccc3c2N(C(=O)c2ccco2)CCC3)cc1)c1ccco1` [Compound 23, Furan-2-carboxylic acid {4-[1-(furan-2-carbonyl)-1,2,3,4-tetrahydro-quinolin-8-yloxy]-phenyl}-amide] showed an EC50 (HIV) of 11.2 µM, a CC50 [1] of 34.2 µM and an EC50 [2] of 123 µM. The “ERA assay % inh” value [2] was 92%.
For `COc1ccc(S(=O)(=O)Nc2ccc(Oc3ccc(NC(=O)COC(C)=O)cc3)cc2)cc1` [Compound 1, acetic acid {4-[4-(4-methoxy-benzenesulfonylamino)-phenoxy]-phenylcarbamoyl}-methyl ester], the EC50 (HIV) was 1.69 µM, the CC50 [1] was > 27.7 µM and the EC50 [2] was 92 µM. For the same compound, the “ERA assay % inh” value [2] was 89%.
With `COc1cccc(C(=O)Nc2ccc(Oc3ccc(NC(=O)c4cccc(OC)c4)cc3)cc2)c1` [Compound 11] the EC50 (HIV) was > 32 µM, the CC50 [1] was > 32 µM and the EC50 [2] was 68.9 µM. For the same compound, the “ERA assay % inh” value [2] was 64%.
With `O=C(COc1ccccc1)Nc1ccc(Oc2ccc(NC(=O)c3cccc([N+](=O)[O-])c3)cc2)cc1` [Compound 31] the EC50 (HIV) was 0.43 µM, the CC50 [1] was 3.41 µM and the EC50 [2] was > 100 µM. For the same compound, the “ERA assay % inh” value [2] was 13%.
With `O=C(COc1ccccc1)Nc1ccc(Oc2ccc(NC(=O)Cc3ccccc3)cc2)cc1` [Compound 33] the EC50 (HIV) was 5.01 µM, the CC50 [1] was 30.2 µM and the EC50 [2] was 196 µM. The “ERA assay % inh” value [2] was 52%.
With `O=C(COc1ccccc1)NCc1cccc(Oc2ccc(NC(=O)COc3ccccc3)cc2)c1` [Compound 42] the EC50 (HIV) was 3.77 µM, the CC50 [1] was 46.5 µM and the EC50 [2] was > 200 µM. The “ERA assay % inh” value [2] was 37%.
With `O=C(CN[C@@H](Cc1ccccc1)C(=O)O)Nc1ccc(Oc2cccc(C(=O)O)c2)cc1C(F)(F)F` [Compound 8] the EC50 (HIV) was > 100 µM, the CC50 [1] was > 100 µM and the EC50 [2] was > 200 µM. For the same compound, the “ERA assay % inh” value [2] was 3%.
With `COc1ccc(S(=O)(=O)Nc2ccc(Oc3ccc([N+](=O)[O-])cc3)cc2)cc1` [Compound 29] the EC50 (HIV) was 1.18 µM, the CC50 [1] was 61.6 µM and the EC50 [2] was 177 µM. For the same compound, the “ERA assay % inh” value [2] was 59%.
